Measured values reported in ChEMBL document CHEMBL5214910, “Rational Design of Dipicolylamine-Containing Carbazole Amphiphiles Combined with Zn2+ as Potent Broad-Spectrum Antibacterial Agents with a Membrane-Disruptive Mechanism” (J Med Chem, 2021).
Converted amounts (≈) assume the structure as drawn.

Experiments:
Staphylococcus aureus [1] = assay: Induction of drug resistance in Staphylococcus aureus ATCC 29213 assessed as fold change in MIC incubated for 17 days; assay type: functional; conditions: time 17.0 day
Staphylococcus aureus [2] = assay: Antibacterial activity against Staphylococcus aureus ATCC 29213 in cyclophosphamide immunosuppressed C57BL/6 mouse model of bacterial keratitis assessed as log reduction in viable bacterial count in infected cornea at 5 % pre-infected with bacteria for 24 hrs followed by topical administration of compound four times a day for 3 days; assay type: functional; conditions: route top, time 3 day
Staphylococcus aureus [3] = assay: Antibacterial activity against Staphylococcus aureus ATCC 29213 assessed as inhibition of bacterial growth incubated for 24 hrs by Muller hinton broth based dilution assay; assay type: functional
Escherichia coli [4] = assay: Antibacterial activity Escherichia coli ATCC 25922 assessed as inhibition of bacterial growth incubated for 24 hrs by Muller hinton broth based dilution assay; assay type: functional
Staphylococcus aureus [5] = assay: Antibacterial activity against Methicillin-resistant Staphylococcus aureus N315 assessed as inhibition of bacterial growth incubated for 24 hrs in the presence of 12.5 ug/mL Zn2+ by Muller hinton broth based dilution assay; assay type: functional
Acinetobacter baumannii [6] = assay: Antibacterial activity against Acinetobacter baumannii ATCC 17978 assessed as inhIbition of bacterial growth incubated for 24 hrs in the presence of 12.5 ug/mL Zn2+ by Muller hinton broth based dilution assay; assay type: functional
Pseudomonas aeruginosa [7] = assay: Antibacterial activity Pseudomonas aeruginosa ATCC 9027 assessed as inhibition of bacterial growth incubated for 24 hrs by Muller hinton broth based dilution assay; assay type: functional
Staphylococcus aureus [8] = assay: Antibacterial activity against Methicillin-resistant Staphylococcus aureus N315 assessed as inhibition of bacterial growth incubated for 24 hrs by Muller hinton broth based dilution assay; assay type: functional
Pseudomonas aeruginosa [9] = assay: Antibacterial activity Pseudomonas aeruginosa ATCC 9027 assessed as inhibition of bacterial growth incubated for 24 hrs in the presence of 12.5 ug/mL Zn2+ by Muller hinton broth based dilution assay; assay type: functional
Staphylococcus aureus [10] = assay: Antibacterial activity against Methicillin-resistant Staphylococcus aureus NCTC10442 assessed as inhibition of bacterial growth incubated for 24 hrs by Muller hinton broth based dilution assay; assay type: functional
Staphylococcus aureus [11] = assay: Antibacterial activity against Methicillin-resistant Staphylococcus aureus NCTC10442 assessed as inhibition of bacterial growth incubated for 24 hrs in the presence of 12.5 ug/mL Zn2+ by Muller hinton broth based dilution assay; assay type: functional
Escherichia coli [12] = assay: Antibacterial activity Escherichia coli ATCC 25922 assessed as inhibition of bacterial growth incubated for 24 hrs in the presence of 12.5 ug/mL Zn2+ by Muller hinton broth based dilution assay; assay type: functional
Staphylococcus aureus [13] = assay: Antibacterial activity against Staphylococcus aureus ATCC 29213 assessed as inhibition of bacterial growth incubated for 24 hrs in the presence of 12.5 ug/mL Zn2+ by Muller hinton broth based dilution assay; assay type: functional
Acinetobacter baumannii [14] = assay: Antibacterial activity against Acinetobacter baumannii R2889 assessed as inhIbition of bacterial growth incubated for 24 hrs in the presence of 12.5 ug/mL Zn2+ by Muller hinton broth based dilution assay; assay type: functional
Acinetobacter baumannii [15] = assay: Antibacterial activity against Acinetobacter baumannii ATCC 17978 assessed as inhIbition of bacterial growth incubated for 24 hrs by Muller hinton broth based dilution assay; assay type: functional
Acinetobacter baumannii [16] = assay: Antibacterial activity against Acinetobacter baumannii R2889 assessed as inhIbition of bacterial growth incubated for 24 hrs by Muller hinton broth based dilution assay; assay type: functional
[17] = Hemolytic activity in rabbit RBC incubated for 1 hrs by fluorescence based microplate reader assay; assay type: toxicity, cell-based, Oryctolagus cuniculus, Erythrocyte; conditions: rabbit red blood cells (erythrocytes)
[18] = Hemolytic activity in rabbit RBC incubated for 1 hrs in the presence of 12.5 ug/mL Zn2+ by fluorescence based microplate reader assay; assay type: toxicity, cell-based, Oryctolagus cuniculus, Erythrocyte; conditions: rabbit red blood cells (erythrocytes)
Escherichia coli [19] = assay: Induction of drug resistance in Escherichia coli ATCC 25922 assessed as fold change in MIC incubated for 15 days; assay type: functional; conditions: time 15.0 day

SMILES | fold change (FC) (Staphylococcus aureus [1]) | log(activity) (Staphylococcus aureus [2]) | MIC (Staphylococcus aureus [3]) | MIC (Escherichia coli [4]) | MIC (Staphylococcus aureus [5]) | MIC (Acinetobacter baumannii [6]) | MIC (Pseudomonas aeruginosa [7]) | MIC (Staphylococcus aureus [8]) | MIC (Pseudomonas aeruginosa [9]) | MIC (Staphylococcus aureus [10]) | MIC (Staphylococcus aureus [11]) | MIC (Escherichia coli [12]) | MIC (Staphylococcus aureus [13]) | MIC (Acinetobacter baumannii [14]) | MIC (Acinetobacter baumannii [15]) | MIC (Acinetobacter baumannii [16]) | HC50 at 1 h [17] | HC50 at 1 h [18] | fold change (FC) (Escherichia coli [19])
CCn1cc(C(=O)O)c(=O)c2cc(F)c(N3CCNCC3)cc21 | 32 |  |  |  |  |  |  |  |  |  |  |  |  |  |  |  |  |  | 
CN[C@H](CC(C)C)C(=O)N[C@H]1C(=O)N[C@@H](CC(N)=O)C(=O)N[C@H]2C(=O)N[C@H]3C(=O)N[C@H](C(=O)N[C@H](C(=O)O)c4cc(O)cc(O)c4-c4cc3ccc4O)[C@H](O)c3ccc(c(Cl)c3)Oc3cc2cc(c3O[C@@H]2O[C@H](CO)[C@@H](O)[C@H](O)[C@H]2O[C@H]2C[C@](C)(N)[C@H](O)[C@H](C)O2)Oc2ccc(cc2Cl)[C@H]1O [VANCOMYCIN] |  | 5.4 | 0.78 µg/mL (≈ 0.538 µM) | > 50 µg/mL | 1.56 µg/mL | 50 µg/mL | > 50 µg/mL | 1.56 µg/mL (≈ 1.08 µM) | > 50 µg/mL | 1.56 µg/mL (≈ 1.08 µM) | 1.56 µg/mL | > 50 µg/mL | 0.78 µg/mL | > 50 µg/mL | 50 µg/mL (≈ 34.5 µM) | > 50 µg/mL |  |  | 
CCCCCCCn1c2ccccc2c2c(OCC(O)CN(Cc3ccccn3)Cc3ccccn3)cccc21 (stereo not drawn) |  |  | 1.56 µg/mL (≈ 2.91 µM) | > 50 µg/mL | 0.78 µg/mL | > 50 µg/mL | > 50 µg/mL | 1.56 µg/mL (≈ 2.91 µM) | > 50 µg/mL | 1.56 µg/mL (≈ 2.91 µM) | 1.56 µg/mL | 3.12 µg/mL | 1.56 µg/mL | 25 µg/mL | > 50 µg/mL | 25 µg/mL (≈ 46.6 µM) | > 200 µg/mL | > 200 µg/mL | 
CCCn1c2ccccc2c2c(OCC(O)CN(Cc3ccccn3)Cc3ccccn3)cccc21 (stereo not drawn) |  |  | 3.12 µg/mL (≈ 6.5 µM) | 12.5 µg/mL (≈ 26 µM) | 0.78 µg/mL | 3.12 µg/mL | > 50 µg/mL | 1.56 µg/mL (≈ 3.25 µM) | 6.25 µg/mL | 3.12 µg/mL (≈ 6.5 µM) | 1.56 µg/mL | 6.25 µg/mL | 0.78 µg/mL | 6.25 µg/mL | 6.25 µg/mL (≈ 13 µM) | 6.25 µg/mL (≈ 13 µM) | > 200 µg/mL | > 200 µg/mL | 
Cn1c2ccccc2c2c(OCC3CO3)cccc21 (stereo not drawn) |  |  | > 50 µg/mL | > 50 µg/mL |  |  | > 50 µg/mL | > 50 µg/mL |  | > 50 µg/mL |  |  |  |  | > 50 µg/mL | > 50 µg/mL | > 200 µg/mL |  | 
CCCCCn1c2ccccc2c2c(OCC(O)CN(Cc3ccccn3)Cc3ccccn3)cccc21 (stereo not drawn) |  |  | 1.56 µg/mL (≈ 3.07 µM) | 6.25 µg/mL (≈ 12.3 µM) | 0.78 µg/mL | 3.12 µg/mL | > 50 µg/mL | 1.56 µg/mL (≈ 3.07 µM) | 6.25 µg/mL | 1.56 µg/mL (≈ 3.07 µM) | 0.78 µg/mL | 1.56 µg/mL | 1.56 µg/mL | 3.12 µg/mL | 3.12 µg/mL (≈ 6.14 µM) | 3.12 µg/mL (≈ 6.14 µM) | > 200 µg/mL | > 200 µg/mL | 
CC(C)=CCn1c2ccccc2c2c(OCC3CO3)cccc21 (stereo not drawn) |  |  | > 50 µg/mL | > 50 µg/mL |  |  | > 50 µg/mL | > 50 µg/mL |  | > 50 µg/mL |  |  |  |  | > 50 µg/mL | > 50 µg/mL | > 200 µg/mL |  | 
CCCCCn1c2ccccc2c2c(OCC3CO3)cccc21 (stereo not drawn) |  |  | > 50 µg/mL | > 50 µg/mL |  |  | > 50 µg/mL | > 50 µg/mL |  | > 50 µg/mL |  |  |  |  | > 50 µg/mL | > 50 µg/mL | > 200 µg/mL |  | 
CC(C)=CCn1c2ccccc2c2c(OCC(O)CN(C)C)cccc21 (stereo not drawn) |  |  | 6.25 µg/mL (≈ 17.7 µM) | 25 µg/mL (≈ 70.9 µM) | 6.25 µg/mL | 12.5 µg/mL | > 50 µg/mL | 6.25 µg/mL (≈ 17.7 µM) | > 50 µg/mL | 6.25 µg/mL (≈ 17.7 µM) | 6.25 µg/mL | 25 µg/mL | 6.25 µg/mL | 12.5 µg/mL | 12.5 µg/mL (≈ 35.5 µM) | 12.5 µg/mL (≈ 35.5 µM) |  |  | 
OC(COc1cccc2c1c1ccccc1n2CCCC(F)(F)F)CN(Cc1ccccn1)Cc1ccccn1 (stereo not drawn) |  |  | 3.12 µg/mL (≈ 5.7 µM) | 12.5 µg/mL (≈ 22.8 µM) | 1.56 µg/mL | 3.12 µg/mL | > 50 µg/mL | 3.12 µg/mL (≈ 5.7 µM) | 12.5 µg/mL | 1.56 µg/mL (≈ 2.84 µM) | 0.78 µg/mL | 3.12 µg/mL | 1.56 µg/mL | 3.12 µg/mL | 6.25 µg/mL (≈ 11.4 µM) | 6.25 µg/mL (≈ 11.4 µM) | > 200 µg/mL | > 200 µg/mL | 
CCN(CC)CC(O)COc1cccc2c1c1ccccc1n2CC=C(C)C (stereo not drawn) |  |  | 6.25 µg/mL (≈ 16.4 µM) | > 50 µg/mL | 6.25 µg/mL | 50 µg/mL | > 50 µg/mL | 6.25 µg/mL (≈ 16.4 µM) | > 50 µg/mL | 6.25 µg/mL (≈ 16.4 µM) | 6.25 µg/mL | 50 µg/mL | 6.25 µg/mL | 25 µg/mL | 50 µg/mL (≈ 131 µM) | 25 µg/mL (≈ 65.7 µM) |  |  | 
CC1(C)S[C@@H]2[C@H](NC(=O)[C@H](N)c3ccc(O)cc3)C(=O)N2[C@H]1C(=O)O |  |  |  |  |  |  |  |  |  |  |  |  |  |  |  |  |  |  | 16
